Data published in US8222420B2, “Nitrogen-containing compounds and harmful organism control agents” (Nippon Soda Co., Ltd., priority 2009, dated 2012).

Tests used:
[1] = tested on: Tetranychus urticae resistant to organic phosphorous agents; experiment: Efficacy against Tetranychus urticae (spray on kidney bean plants); type: in vivo; conditions: 500 ppm wettable powder sprayed on kidney bean plants with female adults; 25° C., humidity 65%; 3 days later
Text: After inoculating the first true leaves of kidney bean plants planted in a no. 3 pot for which 7 to 10 days had elapsed since germination with 17 female adult Tetranychus urticae resistant to organic phosphorous agents, a chemical liquid diluted with water to a compound concentration of 500 ppm was sprayed onto the kidney bean plants in accordance with the formula of the wettable powder indicated in the aforementioned Preparation Example 1. The kidney bean plants were placed in a constant temperature chamber at a temperature of 25° C. and humidity of 65% and insect mortality rate was investigated 3 days later. The test was repeated twice.

Aphis gossypii = experiment: Efficacy against Aphis gossypii (spray on infested cucumber plants); type: in vivo; conditions: 500 ppm emulsion sprayed on cucumber plants infested with nymphs; 25° C., humidity 65%; 5 days later
Text: Cucumber plants planted in a no. 3 pot for which 10 days had elapsed since germination were inoculated with adult Aphis gossypii. The adult insects were removed after 1 day, and a chemical liquid diluted with water to a compound concentration of 500 ppm was sprayed onto the cucumber plants infested with nymphs laid by the adults in accordance with the emulsion formula indicated in the aforementioned Preparation Example 2. The cucumber plants were placed in a constant temperature chamber at a temperature of 25° C. and humidity of 65% and insect viability was investigated 5 days later followed by determination of insect mortality rate. The test was repeated twice.

SMILES | insect mortality rate [1] | insect mortality rate (Aphis gossypii)
Cc1cc(Cl)ccc1N=CN(C)C [chlordimeform] | 40% | –
Cc1nc(N(C)C)nc(OC(=O)N(C)C)c1C [pirimicarb] | – | 9%
